Where two headings read alike, the source gives them in different places.

The EC50 is the concentration that produces a half-maximal response.

The target in the test is T1, human androgen receptor (hAR) (Homo sapiens, UniProt P10275).
T1 sequence (P10275 1-920): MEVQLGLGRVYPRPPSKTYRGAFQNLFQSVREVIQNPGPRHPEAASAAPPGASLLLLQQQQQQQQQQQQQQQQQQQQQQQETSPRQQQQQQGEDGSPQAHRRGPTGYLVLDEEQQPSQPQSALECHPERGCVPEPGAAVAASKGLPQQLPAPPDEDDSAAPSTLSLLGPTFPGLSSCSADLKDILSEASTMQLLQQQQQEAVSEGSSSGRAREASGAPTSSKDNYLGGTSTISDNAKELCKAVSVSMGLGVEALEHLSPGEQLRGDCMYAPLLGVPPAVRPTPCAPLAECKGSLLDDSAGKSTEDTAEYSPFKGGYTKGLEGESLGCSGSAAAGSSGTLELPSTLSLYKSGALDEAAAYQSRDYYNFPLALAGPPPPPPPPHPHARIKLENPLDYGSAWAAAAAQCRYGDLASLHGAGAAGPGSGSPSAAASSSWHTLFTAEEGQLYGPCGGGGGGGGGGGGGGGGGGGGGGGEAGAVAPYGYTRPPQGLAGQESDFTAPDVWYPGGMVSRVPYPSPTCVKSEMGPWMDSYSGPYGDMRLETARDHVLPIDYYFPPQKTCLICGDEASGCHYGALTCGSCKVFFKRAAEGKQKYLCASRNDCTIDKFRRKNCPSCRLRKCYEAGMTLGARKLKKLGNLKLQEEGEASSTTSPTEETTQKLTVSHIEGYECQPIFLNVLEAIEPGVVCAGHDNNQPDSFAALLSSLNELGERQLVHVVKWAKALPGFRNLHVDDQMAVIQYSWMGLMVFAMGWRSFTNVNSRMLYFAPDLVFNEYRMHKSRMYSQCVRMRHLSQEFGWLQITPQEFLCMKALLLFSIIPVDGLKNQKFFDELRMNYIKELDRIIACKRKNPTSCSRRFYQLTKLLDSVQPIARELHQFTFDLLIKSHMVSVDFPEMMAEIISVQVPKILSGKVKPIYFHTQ
The experiment in a line: Functional response test: hAR transactivation (luciferase reporter) in HALP2 cells. It is filed as cell-based. The note with it: for EC50: agonism, HALP2 cells (HeLa, hAR + ARE-luciferase), 20 hours at 37° C. An excerpt:
This test constitutes a method of identifying pure or partial agonists which mimic the effects of natural hormones, such as DHT (dihydrotestosterone) in the present case or, on the other hand, antagonists which inhibit them.
For this transactivation test, plasmids encoding a reporter gene and the human androgen receptor (hAR) are introduced together by transfection into the HeLa cell line. The reporter plasmid contains luciferase cDNA under the control of the AREs contained in the promoter sequences of the probasin gene (3xpbAREminicoll-luciferase/pGL3-puro). The expression of the reporter gene constitutes an indication of the transcriptional activity of hAR. It also encodes a protein allowing the cells expressing it to resist a treatment with puromycin. The plasmid encoding hAR contains the cDNA of hAR under the control of the Cytomegalovirus (CMV) promoter. It also encodes a protein allowing the cells expressing it to resist a treatment with neomycin. The treatment of cells with increasing amounts of potentially agonistic compounds will increase the expression of the reporter gene. To detect antagonists, on the other hand, increasing doses of test compounds are tested in the presence of […] of DHT. The expression of the reporter gene, which is constant for each dose of DHT, decreases when the concentration of the test compounds increases.
For this test, HeLa cells were obtained from the American Type Culture Collection (Rockville, Md.) and cultivated in DMEM medium containing 4.5 g/l of glucose, supplemented with Glutamax and with nonessential amino-acids and with 10% of foetal calf serum (SVF; Dominique Dutscher).
On the day before transfection, a million cells were seeded in DMEM medium without phenol red, supplemented with Glutamax and with desteroided SVF (5%) in Petri dishes. The cells were transfected with 4 μg of the puromycin resistance plasmids pcDNA3-hAR and 3xpbAREminicoll-luciferase/pGL3 using the reagent “Lipofectamine plus” (Invitrogen), following the supplier's recommendations. The day after transfection, the cells were seeded to different cell densities (10,000 to 100,000 cellules per Petri dish). Two days after transfection, the transfected cells were selected in DMEM medium without phenol red, supplemented with Glutamax and with desteroided SVF (5%) containing 400 μg/mL of G418 (Invitrogen) and 150 ng/mL of puromycin (Sigma). The culture medium was renewed weekly until resistant clones appeared. The resistant clones were removed and amplified before being tested for their functional response. […]
The functional response test was conducted on 96-well plates. The HALP2 cells were seeded (30,000 cells per well) 24 hours before the phase of stimulation in DMEM medium containing 4.5 g/L of glucose, supplemented with Glutamax and nonessential amino-acids, and with desteroided SVF (5%).
On the day of stimulation, the seeding medium was replaced by DMEM medium without phenol red, supplemented with Glutamax and with desteroided SVF (5%). […] The cells were placed in contact with the compounds for 20 hours at 37° C.

Setting [1] is: antagonism, concentration which increases the EC50 of the DHT by a factor of 2, Schild regression, HALP2 cells.

Take `CCOC(=O)CCN1C(=O)N(c2ccc(C#N)c(C(F)(F)F)c2)C(=O)C1(C)c1ccc(O)cc1` (centres unmarked) [Example 236, 4-[2,5-dioxo-3-[2-(ethoxycarbonyl)ethyl]-4-(4-hydroxyphenyl)-4-methylimidazolidin-1-yl]-2-trifluoromethylbenzonitrile]: the “KSchild (nM) potency” value is listed as 15 nM.

As for `Cc1cc(O)ccc1C1(C)C(=O)N(c2ccc(C#N)c(C(F)(F)F)c2)C(=O)N1C` (centres unmarked) [Example 180, 4-[3,4-dimethyl-2,5-dioxo-4-(4-hydroxy-2-methylphenyl)imidazolidin-1-yl]-2-trifluoromethylbenzonitrile], the “KSchild (nM) potency” value is 8 nM. Regarding `CN1C(=O)N(c2ccc(C#N)c(C(F)(F)F)c2)C(=O)C1(c1ccc(O)cc1)C(F)(F)F` (centres unmarked) [Example 179, 4-[2,5-dioxo-4-(4-hydroxyphenyl)-3-methyl-4-trifluoromethylimidazolidin-1-yl]-2-trifluoromethylbenzonitrile], the “KSchild (nM) potency” value came to 15 nM. For `C=CCN1C(=O)N(c2ccc(F)c(F)c2)C(=O)C1c1ccc(O)cc1` (centres unmarked) [Example 14, 1-(3,4-difluorophenyl)-4-(4-hydroxyphenyl)-3-(2-propenyl)imidazolidine-2,5-dione], the EC50 stood at 30 nM. The “KSchild (nM) potency” value under setting [1] came out at 30 nM. Turning to `Cc1c(N2C(=O)N(C)C(C)(c3ccc(O)cc3)C2=O)ccc(C#N)c1C(F)(F)F` (centres unmarked) [Example 38, 4-[3,4-dimethyl-2,5-dioxo-4-(4-hydroxyphenyl)imidazolidin-1-yl]-3-methyl-2-trifluoromethylbenzonitrile], the “KSchild (nM) potency” value amounted to 3 nM. For the compound `CCOCCCN1C(=O)N(c2ccc(Cl)c(Cl)c2)C(=O)C1c1ccc(O)cc1` (centres unmarked) [Example 84], the concentration giving a half-maximal response (EC50) was 24.5 nM. For the same compound, the “KSchild (nM) potency” value under setting [1] amounted to 17.32 nM. Take `N#CCCN1C(=O)N(c2ccc(C#N)c(C(F)(F)F)c2)C(=O)C1c1ccc(O)cc1` (centres unmarked) [Example 121]: the “KSchild (nM) potency” value turned out to be 17.32 nM. For the compound `N#CCCN1C(=O)N(c2ccc(F)c(C(F)(F)F)c2)C(=O)C1c1ccc(O)cc1` (centres unmarked) [Example 126], the EC50 is 212 nM. Also, the “KSchild (nM) potency” value under setting [1] came to 212.13 nM. As to `Cc1cc(C#N)ccc1N1C(=O)N(C)C(C)(c2ccc(O)cc2)C1=O` (centres unmarked) [Example 36, 4-[3,4-dimethyl-2,5-dioxo-4-(4-hydroxyphenyl)imidazolidin-1-yl]-3-methylbenzonitrile], the “KSchild (nM) potency” value amounted to 69.28 nM. Regarding `CCCN1C(=O)N(c2ccc(C#N)c(C(F)(F)F)c2)C(=O)C1c1ccc(O)cc1` (centres unmarked) [Example 60], the “KSchild (nM) potency” value turned out to be 21.21 nM. Still for that read-out and setting: in the case of `CN(C)CCN1C(=O)N(c2ccc([N+](=O)[O-])c(C(F)(F)F)c2)C(=O)C1c1ccc(O)cc1` (centres unmarked) [Example 114] it was 1095.45 nM.

For the compound `CN1C(=O)N(c2ccc(Cl)c(Cl)c2)C(=O)C1c1cccc(O)c1` (centres unmarked) [Example 152, 1-(3,4-dichlorophenyl)-4-(3-hydroxyphenyl)-3-methylimidazolidine-2,5-dione], the EC50 was 4 nM. Besides, the “KSchild (nM) potency” value under setting [1] is given as 4 nM.

`C=CCN1C(=O)N(c2ccc(C#N)c(C(F)(F)F)c2)C(=O)C1(C)c1ccc(O)cc1` (centres unmarked) [Example 23, 4-[2,5-dioxo-4-(4-hydroxyphenyl)-4-methyl-3-(2-propenyl)imidazolidin-1-yl]-2-trifluoromethylbenzonitrile]: under setting [1], the “KSchild (nM) potency” value came out at 2 nM. As to `CC1(c2ccc(O)cc2)C(=O)N(c2ccc(Cl)c(Cl)c2)C(=O)N1CCO` (centres unmarked) [Example 146], the EC50 came out at 30 nM. Further, under setting [1], the “KSchild (nM) potency” value came out at 30 nM. As to `COc1ccc2c(c1)CCC21C(=O)N(c2ccc(C#N)c(C(F)(F)F)c2)C(=O)N1C` (centres unmarked) [Example 165, 4-[2′,3′-dihydro-2,5-dioxo-5′-methoxy-3-methylspiro(imidazolidin-4,1′(1H)inden)-1-yl]-2-trifluoromethylbenzonitrile], the “KSchild (nM) potency” value came to 60 nM. `N#CCCN1C(=O)N(c2ccc(F)c(F)c2)C(=O)C1c1ccc(O)cc1` (centres unmarked) [Example 124]: the EC50 turned out to be 89.4 nM. Moreover, the “KSchild (nM) potency” value under setting [1] was 89.44 nM. As to `CCOC(=O)CCN1C(=O)N(c2ccc([N+](=O)[O-])cc2)C(=O)C1c1ccc(O)cc1` (centres unmarked) [Example 81], the “KSchild (nM) potency” value came to 16.38 nM. For `N#Cc1ccc(N2C(=O)C(c3ccc(O)cc3)N(CCO)C2=O)cc1C(F)(F)F` (centres unmarked) [Example 137], the “KSchild (nM) potency” value was found to be 24.49 nM. On the same count and under the same terms, in the case of `CCOC(=O)CCN1C(=O)N(c2ccc(C#N)c(C(F)(F)F)c2)C(=O)C1c1ccc(O)cc1` (centres unmarked) [Example 74] it was 17.32 nM. As to `C#CCN1C(=O)N(c2ccc(F)c(Cl)c2)C(=O)C1c1ccc(O)cc1` (centres unmarked) [Example 70], the EC50 stood at 20 nM. The “KSchild (nM) potency” value under setting [1] is listed as 20 nM. Regarding `O=C1C(c2ccc(O)cc2)N(CCCCO)C(=O)N1c1cccc(C(F)(F)F)c1` (centres unmarked) [Example 136], the EC50 was 600 nM. Also, the “KSchild (nM) potency” value under setting [1] worked out at 600 nM. For the compound `CC1(c2ccc(O)cc2)C(=O)N(c2ccc(C#N)c(C(F)(F)F)c2)C(=O)N1CCCCO` (centres unmarked) [Example 24, 4-[2,5-dioxo-3-(4-hydroxybutyl)-4-(4-hydroxyphenyl)-4-methylimidazolidin-1-yl]-2-trifluoromethylbenzonitrile], the “KSchild (nM) potency” value was found to be 15 nM. Turning to `CCOCCCN1C(=O)N(c2ccc(F)c(C(F)(F)F)c2)C(=O)C1c1ccc(O)cc1` (centres unmarked) [Example 87], the EC50 is 77.5 nM. Moreover, under setting [1], the “KSchild (nM) potency” value is reported as 77.46 nM. Taken in the same sequence, the figures for `O=C1C(c2ccc(O)cc2)N(CCO)C(=O)N1c1ccc(F)c(C(F)(F)F)c1` (centres unmarked) [Example 142] were 141 nM and 141.42 nM. Taken in the same sequence, the figures for `C=CCN1C(=O)N(c2ccc(F)c(C(F)(F)F)c2)C(=O)C1c1ccc(O)cc1` (centres unmarked) [Example 62] were 34.6 nM and 34.64 nM. Taken in the same sequence, the figures for `CN1C(=O)N(c2ccc(Cl)c3ccccc23)C(=O)C1(C)c1ccc(O)cc1` (centres unmarked) [Example 32, 1-(4-chloronaphthyl)-3,4-dimethyl-4-(4-hydroxyphenyl)imidazolidine-2,5-dione] were 300 nM and 300 nM.

For `N#CCCN1C(=O)N(c2cccc(C(F)(F)F)c2)C(=O)C1c1ccc(O)cc1` (centres unmarked) [Example 128], the EC50 is 245 nM. The “KSchild (nM) potency” value under setting [1] is reported as 244.95 nM. On to `CCOCCCN1C(=O)N(c2ccc(C#N)c(C(F)(F)F)c2)C(=O)C1c1ccc(O)cc1` (centres unmarked) [Example 82], for which the “KSchild (nM) potency” value came to 30 nM. As to `CC1(c2ccc(O)cc2)C(=O)N(c2ccc(C#N)c(C(F)(F)F)c2)C(=O)N1CS(C)(=O)=O` (centres unmarked) [Example 222.3, 4-[2,5-dioxo-4-(4-hydroxyphenyl)-4-methyl-3-[(methylsulphonyl)methyl]imidazolidin-1-yl]-2-trifluoromethylbenzonitrile], under setting [1], the “KSchild (nM) potency” value is on record as 200 nM. As to `O=C1C(c2ccc(O)cc2)N(CCCCO)C(=O)N1c1ccc(F)c(F)c1` (centres unmarked) [Example 133], the EC50 was 600 nM. Moreover, the “KSchild (nM) potency” value under setting [1] turned out to be 600 nM.

These data come from patent US8168667B2 (Galapagos NV, priority 2006, dated 2012).
